US11649241B2, “Pyrazolochlorophenyl compounds, compositions and methods of use thereof” (Genentech, Inc., priority 2017, dated 2023)
pIC50, pKi: −log10 of the molar value.

Key:
[1] = biological target: isolated recombinant JAK1 kinase domain (Homo sapiens (Human), UniProt P23458); experiment: JAK enzyme assay (Caliper LabChip peptide phosphorylation), JAK1; assay type: biochemical; conditions: 1.5 nM JAK1, ATP 25 μM, Morrison tight binding model
[2] = biological target: isolated recombinant JAK2 kinase domain (Homo sapiens (Human), UniProt O60674); experiment: JAK enzyme assay (Caliper LabChip peptide phosphorylation), JAK2; assay type: biochemical; conditions: 0.2 nM JAK2, ATP 25 μM, Morrison tight binding model
[3] = test system: JAK1-dependent STAT6 phosphorylation downstream of IL-13 stimulation (TF-1 / BEAS-2B cells); experiment: JAK1 pathway assay in cell lines (IL-13-stimulated pSTAT6, MSD); assay type: cell-based; conditions: Homo sapiens, inhibition of STAT6 phosphorylation, cell line (TF-1 or BEAS-2B) not specified
Method: JAK1 Pathway Assay in Cell Lines was Carried Out as Follows:
Inhibitor potency (EC50) was determined in cell-based assays designed to measure JAK1 dependent STAT phosphorylation. As noted above, inhibition of IL-4, IL-13, and IL-9 signalling by blocking the Jak/Stat signaling pathway can alleviate asthmatic symptoms in pre-clinical lung inflammation models (Mathew et al., 2001, J Exp Med 193(9): 1087-1096; Kudlacz et. al., 2008, Eur J. Pharmacol 582(1-3): 154-161).
In one assay approach, TF-1 human erythroleukemia cells obtained from the American Type Culture Collection (ATCC; Manassas, Va.) were used to measure JAK1-dependent STAT6 phosphorylation downstream of IL-13 stimulation. Prior to use in the assays, TF-1 cells were starved of GM-CSF overnight in OptiMEM medium (Life Technologies, Grand Island, N.Y.) supplemented with 0.5% charcoal/dextran stripped fetal bovine serum (FBS), 0.1 mM non-essential amino acids (NEAA), and 1 mM sodium pyruvate. The assays were run in 384-well plates in serum-free OptiMEM medium using 300,000 cells per well. In a second assay approach, BEAS-2B human bronchial epithelial cells obtained from ATCC were plated at 100,000 cells per well of a 96-well plate one day prior to the experiment. The BEAS-2B assay was run in complete growth medium (bronchial epithelial basal medium plus bulletkit; Lonza; Basel, Switzerland).
Test compounds were serially diluted 1:2 in DMSO and then diluted 1:50 in medium just before use. Diluted compounds were added to the cells, for a final DMSO concentration of 0.2%, and incubated for 30 min (for the TF-1 assay) or 1 hr (for the BEAS-2B assay) at 37° C. Then, cells were stimulated with human recombinant cytokine at their respective EC90 concentrations, as previously determined for each individual lot. Cells were stimulated with IL-13 (R&D Systems, Minneapolis, Minn.) for 15 min at 37° C. The TF-1 cell reactions were stopped by the direct addition of 10× lysis buffer (Cell Signaling Technologies, Danvers, Mass.), whereas the BEAS-2B cell incubations were halted by the removal of medium and addition of 1× lysis buffer. The resultant samples were frozen in the plates at −80° C. Compound mediated inhibition of STAT6 phosphorylation was measured in the cell lysates using MesoScale Discovery (MSD) technology (Gaithersburg, Md.). EC50 values were determined as the concentration of compound required for 50% inhibition of STAT phosphorylation relative to that measured for the DMSO control.

Chain of isolated recombinant JAK1 kinase domain (P23458 875-1153): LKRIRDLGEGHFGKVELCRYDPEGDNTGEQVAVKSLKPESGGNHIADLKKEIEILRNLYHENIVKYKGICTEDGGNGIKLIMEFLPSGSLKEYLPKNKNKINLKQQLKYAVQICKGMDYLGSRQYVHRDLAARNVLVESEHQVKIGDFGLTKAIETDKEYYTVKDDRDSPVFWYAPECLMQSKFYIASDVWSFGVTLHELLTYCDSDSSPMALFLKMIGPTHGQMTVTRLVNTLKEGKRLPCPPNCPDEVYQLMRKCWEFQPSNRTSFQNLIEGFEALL
Chain of isolated recombinant JAK2 kinase domain (O60674 849-1124): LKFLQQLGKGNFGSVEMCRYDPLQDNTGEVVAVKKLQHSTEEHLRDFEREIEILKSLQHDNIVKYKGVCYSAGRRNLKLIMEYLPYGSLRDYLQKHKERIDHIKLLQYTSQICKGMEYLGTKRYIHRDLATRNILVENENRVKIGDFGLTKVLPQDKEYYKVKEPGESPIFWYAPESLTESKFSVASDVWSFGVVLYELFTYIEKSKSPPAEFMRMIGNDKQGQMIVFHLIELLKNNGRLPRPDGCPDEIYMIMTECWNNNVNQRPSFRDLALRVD

Row | pKi [1] | pKi [2] | SMILES | pIC50 [3]
1 | 8.44 | 8.44 | COc1ccc(Cl)cc1-c1nn(C)cc1NC(=O)c1cncc2cn(C)nc12 [Example 1, N-(3-(5-Chloro-2-methoxyphenyl)-1-methyl-1H-pyrazol-4-yl)-2-methyl-2H-pyrazolo[4,3-c]pyridine-7-carboxamide] | 7.03
2 | 8.87 | 9.46 | COc1ccc(Cl)cc1-c1nn(C)cc1NC(=O)c1cncc2cn[nH]c12 [Example 2, N-(3-(5-Chloro-2-methoxyphenyl)-1-methyl-1H-pyrazol-4-yl)-1H-pyrazolo[4,3-c]pyridine-7-carboxamide] | 7.44
3 | 8.18 | 9.02 | COc1ccc(Cl)cc1-c1n[nH]cc1NC(=O)c1cncc2scnc12 [Example 3, N-(3-(5-Chloro-2-methoxyphenyl)-1H-pyrazol-4-yl)thiazolo[5,4-c]pyridine-7-carboxamide] | 
4 | 8.02 | 8.69 | O=C(Nc1c[nH]nc1-c1cc(Cl)ccc1OC(F)F)c1cncc2scnc12 [Example 4, N-(3-(5-chloro-2-(difluoromethoxy)phenyl)-1H-pyrazol-4-yl)thiazolo[5,4-c]pyridine-7-carboxamide] | 
5 | 9.01 | 10.22 | Nc1nc2c(C(=O)Nc3c[nH]nc3-c3cc(Cl)ccc3OC(F)F)cncc2s1 [Example 5, 2-amino-N-(3-(5-chloro-2-(difluoromethoxy)phenyl)-1H-pyrazol-4-yl)thiazolo[5,4-c]pyridine-7-carboxamide] | 
6 | 8.13 | 9.32 | O=C(Nc1c[nH]nc1-c1cc(Cl)ccc1OC(F)F)c1cncc2cn[nH]c12 [Example 6, N-(3-(5-chloro-2-(difluoromethoxy)phenyl)-1H-pyrazol-4-yl)-1H-pyrazolo[4,3-c]pyridine-7-carboxamide] | 
7 | 9.27 | 9.22 | O=C(Nc1c[nH]nc1-c1cc(Cl)ccc1OC(F)F)c1snc2cccnc12 [Example 7, N-(3-(5-chloro-2-(difluoromethoxy)phenyl)-1H-pyrazol-4-yl)isothiazolo[4,3-b]pyridine-3-carboxamide] | 7.69
8 | 9.24 | 9.47 | O=C(Nc1c[nH]nc1-c1cc(Cl)ccc1OC(F)F)c1cnc2[nH]ccc2n1 [Example 8, N-(3-(5-chloro-2-(difluoromethoxy)phenyl)-1H-pyrazol-4-yl)-5H-pyrrolo[3,2-b]pyrazine-2-carboxamide] | 
9 | 9.31 | 9.77 | Nc1nn2cccnc2c1C(=O)Nc1c[nH]nc1-c1cc(Cl)ccc1OC(F)F [Example 9, 2-amino-N-(3-(5-chloro-2-(difluoromethoxy)phenyl)-1H-pyrazol-4-yl)pyrazolo[1,5-a]pyrimidine-3-carboxamide] | 8.10
10 | 9.07 | 9.48 | O=C(Nc1c[nH]nc1-c1cc(Cl)ccc1OC(F)F)c1cncc2ccoc12 [Example 10, N-(3-(5-chloro-2-(difluoromethoxy)phenyl)-1H-pyrazol-4-yl)furo[3,2-c]pyridine-7-carboxamide] | 7.30
11 | 9.25 | 9.31 | O=C(Nc1c[nH]nc1-c1cc(Cl)ccc1OC(F)F)c1coc2cccnc12 [Example 11, N-(3-(5-chloro-2-(difluoromethoxy)phenyl)-1H-pyrazol-4-yl)furo[3,2-b]pyridine-3-carboxamide] | 7.76
12 | 9.39 | 10.05 | O=C(Nc1c[nH]nc1-c1cc(Cl)ccc1OC(F)F)c1cnn2cc(F)cnc12 [Example 12, N-(3-(5-chloro-2-(difluoromethoxy)phenyl)-1H-pyrazol-4-yl)-6-fluoropyrazolo[1,5-a]pyrimidine-3-carboxamide] | 7.77
13 | 8.64 | 9.39 | Cc1ccn2ncc(C(=O)Nc3c[nH]nc3-c3cc(Cl)ccc3OC(F)F)c2n1 [Example 13, N-(3-(5-chloro-2-(difluoromethoxy)phenyl)-1H-pyrazol-4-yl)-5-methylpyrazolo[1,5-a]pyrimidine-3-carboxamide] | 7.38
14 | 9.74 | 10.40 | COc1ccn2ncc(C(=O)Nc3c[nH]nc3-c3cc(Cl)ccc3OC(F)F)c2n1 [Example 14, N-(3-(5-chloro-2-(difluoromethoxy)phenyl)-1H-pyrazol-4-yl)-5-methoxypyrazolo[1,5-a]pyrimidine-3-carboxamide] | 8.42
15 | 8.25 | 8.59 | O=C(Nc1c[nH]nc1-c1cc(Cl)ccc1OC(F)F)c1cncc2[nH]cnc12 [Example 15, N-(3-(5-chloro-2-(difluoromethoxy)phenyl)-1H-pyrazol-4-yl)-3H-imidazo[4,5-c]pyridine-7-carboxamide] | 
